Reference: patent US5589485A, “Dorrigocin antitumor agents” (priority 1995, dated 1996)
≈ marks a conversion by molar mass, not a printed value. Read-outs that look alike come from different tables or passages of the source.

Experiments:
[1] = test system: Fusarium moniliforme AARC 0397; assay: In vitro antifungal activity, agar dilution MIC; format: cell-based; conditions: Fusarium verticillioides
Procedure: (§1) Minimal inhibitory concentrations (MICs) were determined by an agar dilution method. The test compounds were serially diluted in MeOH and 0.2 ml portions were mixed with 20 ml of molten, cooled Sabouraud dextrose agar (Difco). Yeast cell inoculum was prepared by growing cultures on Sabouraud dextrose agar for 18 hours at 32° C. and suspending the cells in phosphate buffered saline. Filamentous fungi were grown under the same conditions for 4 days to obtain spores. The inoculum level for all cultures was adjusted to 10^4 cells using a Petroff-Hauser cell counter. The glutarimide antifungal compound cycloheximide was used as a control. Inoculated test plates were incubated at 32° C. and examined after 20 hours.

[2] = test system: Torulopsis glabrata ATCC 15545; assay: In vitro antifungal activity, agar dilution MIC; format: cell-based; conditions: Nakaseomyces glabratus
Procedure: as §1

A. flavus NRRL 6541 = assay: In vitro antifungal activity, agar dilution MIC; format: cell-based; conditions: Aspergillus flavus
Procedure: as §1

[3] = test system: A. parasiticus NRRL 13539; assay: In vitro antifungal activity, agar dilution MIC; format: cell-based; conditions: Aspergillus parasiticus
Procedure: as §1

F. solani AARC 0353 = assay: In vitro antifungal activity, agar dilution MIC; format: cell-based; conditions: Fusarium solani
Procedure: as §1

[4] = test system: Candida tropicalis NRRL-Y-112; assay: In vitro antifungal activity, agar dilution MIC; format: cell-based
Procedure: as §1

A. fumigatus ATCC 26430 = assay: In vitro antifungal activity, agar dilution MIC; format: cell-based; conditions: Aspergillus fumigatus
Procedure: as §1

[5] = test system: Candida albicans ATCC 10231; assay: In vitro antifungal activity, agar dilution MIC; format: cell-based
Procedure: as §1

[6] = test system: Saccharomyces cereviseae GS1-36; assay: In vitro antifungal activity, agar dilution MIC; format: cell-based
Procedure: as §1

[7] = test system: Aspergillus niger ATCC 16404; assay: In vitro antifungal activity, agar dilution MIC; format: cell-based
Procedure: as §1

[8] = test system: Candida albicans ATCC 38247; assay: In vitro antifungal activity, agar dilution MIC; format: cell-based
Procedure: as §1

Candida albicans 579A = assay: In vitro antifungal activity, agar dilution MIC; format: cell-based
Procedure: as §1

Solubility = format: physicochemical
[9] = test system: K-ras-transformed NIH/3T3 mouse fibroblasts; assay: In vitro antitumor activity: transformed foci / morphology reversion; format: cell-based; conditions: for activity at 0.4 µg/mL: compound dose 0.4 μg/ml; for morphology reversion of transformed cells: microscopic examination
Procedure: Transformed cells are typically rounded when the mutant ras gene is expressed. Normal cells, on the other hand, are flat and adhere to the bottom of a tissue culture plate.
Normal and transformed NIH/3T3 cells were cultured in Dulbecco's modified Eagle medium containing 10% fetal bovine serum, and gentamicin 50 μg/ml at 37° C. in 5% CO2. Ras transformants also contained […] G418. To test the effect of Dorrigocins, 2×10^4 cells were added to 24 well microtiter plates and incubated for 24 hours at 37° C. when the cells had uniformly adhered to the microtiter tray, various concentrations of Dorrigocin A and B dissolved in DMSO, were added and the plates incubated at 37° C. for an additional 48 hours. Cellular morphology was examined microscopically and the average number of transformed foci per field was determined by counting at least 6 separate fields. These foci represent transformed cells that were unaffected by the addition of compound.

[10] = Mus musculus, NIH3T3, 48 hours, untreated NIH/3T3 K-ras = 100, read-out: Transformed foci percentage
[11] = AARC0397, Sabouraud dextrose agar, 32° C., 20 hours, read-out: MIC
[12] = ATCC15545, Sabouraud dextrose agar, 32° C., 20 hours, read-out: MIC
[13] = NRRL6541, Sabouraud dextrose agar, 32° C., 20 hours, read-out: MIC
[14] = NRRL13539, Sabouraud dextrose agar, 32° C., 20 hours, read-out: MIC
[15] = AARC0353, Sabouraud dextrose agar, 32° C., 20 hours, read-out: MIC
[16] = NRRLY112, Sabouraud dextrose agar, 32° C., 20 hours, read-out: MIC
[17] = ATCC26430, Sabouraud dextrose agar, 32° C., 20 hours, read-out: MIC
[18] = ATCC10231, Sabouraud dextrose agar, 32° C., 20 hours, read-out: MIC
[19] = GS136, Sabouraud dextrose agar, 32° C., 20 hours, read-out: MIC
[20] = ATCC16404, Sabouraud dextrose agar, 32° C., 20 hours, read-out: MIC
[21] = ATCC38247, Sabouraud dextrose agar, 32° C., 20 hours, read-out: MIC
[22] = Sabouraud dextrose agar, 32° C., 20 hours, read-out: MIC

**Q.** For `C[C@@H]1C[C@@H]([C@H](O)CC2CC(=O)NC(=O)C2)C(=O)[C@@H](C)C1` [Cycloheximide, cycloheximide, reference compound], which MIC ([1]; AARC0397, 20 h) is on record?
**A.** 0.8 µg/mL (≈ 2.84 µM)

**Q.** And the MIC ([2]; ATCC15545, 20 h)?
**A.** 0.4 µg/mL (≈ 1.42 µM)

**Q.** And the MIC (A. flavus NRRL 6541; NRRL6541, 20 h)?
**A.** 50 µg/mL (≈ 178 µM)

**Q.** What about the MIC ([3]; NRRL13539, 20 h) of the same compound?
**A.** 25 µg/mL (≈ 88.9 µM)

**Q.** And the MIC (F. solani AARC 0353; AARC0353, 20 h)?
**A.** 0.8 µg/mL (≈ 2.84 µM)

**Q.** And the MIC ([4]; NRRLY112, 20 h)?
**A.** 0.4 µg/mL (≈ 1.42 µM)

**Q.** And the MIC (A. fumigatus ATCC 26430; ATCC26430, 20 h)?
**A.** 1.6 µg/mL (≈ 5.69 µM)

**Q.** What about the MIC ([5]; ATCC10231, 20 h) of the same compound?
**A.** > 100 µg/mL

**Q.** What about the MIC ([6]; GS136, 20 h) of the same compound?
**A.** < 0.05 µg/mL

**Q.** And the MIC ([7]; ATCC16404, 20 h)?
**A.** 1.6 µg/mL (≈ 5.69 µM)

**Q.** What about the MIC ([8]; ATCC38247, 20 h) of the same compound?
**A.** > 100 µg/mL

**Q.** What about the MIC (Candida albicans 579A; 20 h) of the same compound?
**A.** > 100 µg/mL

**Q.** For `COC(C=CCCC=CC(=O)O)C(O)C(C)C=C(C)C(O)C(C)C(=O)CCCC1CC(=O)NC(=O)C1` (stereo not drawn) [Dorrigocin A], which “solubility in methanol and dimethylsulfoxide” value (Solubility) is on record?
**A.** readily soluble in methanol and dimethylsulfoxide

**Q.** And the “dose dependence of morphology reversion” value ([9]; 48 hours)?
**A.** dose-dependent

**Q.** And the “relative effectiveness in morphology reversion and reduction in the number of foci” value ([9]; Dorrigocin A compared with Dorrigocin B)?
**A.** more effective than Dorrigocin B

**Q.** And the activity at 0.08 µg/mL ([9]; Mus musculus, NIH3T3, compound dose 0.08 μg/ml, 48 hours, untreated NIH/3T3 K-ras = 100, read-out: Transformed foci percentage)?
**A.** 76%

**Q.** What about the activity at 0.4 µg/mL [9, 10] of the same compound?
**A.** 26%

**Q.** And the activity at 10 µg/mL ([9]; Mus musculus, NIH3T3, compound dose 10 μg/ml, 48 hours, untreated NIH/3T3 K-ras = 100, read-out: Transformed foci percentage)?
**A.** 22%

**Q.** What about the “morphology reversion of transformed cells” value ([9]; 48 hours) of the same compound?
**A.** caused transformed cells to revert to a morphology resembling that of normal cells

**Q.** And the MIC [1, 11]?
**A.** 100 µg/mL (≈ 197 µM)

**Q.** And the MIC [2, 12]?
**A.** > 100 µg/mL

**Q.** What about the MIC (A. flavus NRRL 6541; [13]) of the same compound?
**A.** > 100 µg/mL

**Q.** What about the MIC [3, 14] of the same compound?
**A.** > 100 µg/mL

**Q.** And the MIC (F. solani AARC 0353; [15])?
**A.** 25 µg/mL (≈ 49.2 µM)

**Q.** And the MIC [4, 16]?
**A.** > 100 µg/mL

**Q.** What about the MIC (A. fumigatus ATCC 26430; [17]) of the same compound?
**A.** 25 µg/mL (≈ 49.2 µM)

**Q.** What about the MIC [5, 18] of the same compound?
**A.** > 100 µg/mL

**Q.** And the MIC [6, 19]?
**A.** > 100 µg/mL

**Q.** What about the MIC [7, 20] of the same compound?
**A.** 25 µg/mL (≈ 49.2 µM)

**Q.** And the MIC [8, 21]?
**A.** > 100 µg/mL

**Q.** What about the MIC (Candida albicans 579A; [22]) of the same compound?
**A.** > 100 µg/mL

**Q.** Which “solubility in methanol and dimethylsulfoxide” value (Solubility) does the source give for `COC(C=CCCC=CC(=O)O)C(O)C(C)C(O)C(C)=CC(C)C(=O)CCCC1CC(=O)NC(=O)C1` (stereo not drawn) [Dorrigocin B] here?
**A.** readily soluble in methanol and dimethylsulfoxide

**Q.** And the “dose dependence of morphology reversion” value ([9]; 48 hours)?
**A.** dose-dependent

**Q.** What about the activity at 10 µg/mL ([9]; Mus musculus, NIH3T3, 48 h, read-out: Transformed foci percentage) of the same compound?
**A.** 7%

**Q.** What about the activity at 0.4 µg/mL [9, 10] of the same compound?
**A.** 96%

**Q.** And the “morphology reversion of transformed cells” value ([9]; 48 hours)?
**A.** caused transformed cells to revert to a morphology resembling that of normal cells

**Q.** And the MIC [1, 11]?
**A.** 50 µg/mL (≈ 98.5 µM)

**Q.** What about the MIC [2, 12] of the same compound?
**A.** > 100 µg/mL

**Q.** What about the MIC (A. flavus NRRL 6541; [13]) of the same compound?
**A.** 100 µg/mL (≈ 197 µM)

**Q.** What about the MIC [3, 14] of the same compound?
**A.** 100 µg/mL (≈ 197 µM)

**Q.** What about the MIC (F. solani AARC 0353; [15]) of the same compound?
**A.** 25 µg/mL (≈ 49.2 µM)

**Q.** What about the MIC [4, 16] of the same compound?
**A.** > 100 µg/mL

**Q.** And the MIC (A. fumigatus ATCC 26430; [17])?
**A.** 12.5 µg/mL (≈ 24.6 µM)

**Q.** What about the MIC [5, 18] of the same compound?
**A.** > 100 µg/mL

**Q.** What about the MIC [6, 19] of the same compound?
**A.** > 100 µg/mL

**Q.** And the MIC [7, 20]?
**A.** 12.5 µg/mL (≈ 24.6 µM)

**Q.** What about the MIC [8, 21] of the same compound?
**A.** > 100 µg/mL

**Q.** And the MIC (Candida albicans 579A; [22])?
**A.** > 100 µg/mL
